In patent US20190210996A1, “NOVEL COMPOUNDS” (GLAXOSMITHKLINE INTELLECTUAL PROPERTY DEVELOPMENT LIMITED, priority 2016, published 2019):

Columns and labels:
LATS1 = biological target: T1, LATS1 (Homo sapiens, UniProt O95835); experiment: Expression proteomics in THP-1 cells: LATS1 protein level; type: cell-based; settings: LATS1, THP-1 cells
T1 construct: endogenous in cells; host or cells: THP-1
T1 sequence (O95835 1-1130): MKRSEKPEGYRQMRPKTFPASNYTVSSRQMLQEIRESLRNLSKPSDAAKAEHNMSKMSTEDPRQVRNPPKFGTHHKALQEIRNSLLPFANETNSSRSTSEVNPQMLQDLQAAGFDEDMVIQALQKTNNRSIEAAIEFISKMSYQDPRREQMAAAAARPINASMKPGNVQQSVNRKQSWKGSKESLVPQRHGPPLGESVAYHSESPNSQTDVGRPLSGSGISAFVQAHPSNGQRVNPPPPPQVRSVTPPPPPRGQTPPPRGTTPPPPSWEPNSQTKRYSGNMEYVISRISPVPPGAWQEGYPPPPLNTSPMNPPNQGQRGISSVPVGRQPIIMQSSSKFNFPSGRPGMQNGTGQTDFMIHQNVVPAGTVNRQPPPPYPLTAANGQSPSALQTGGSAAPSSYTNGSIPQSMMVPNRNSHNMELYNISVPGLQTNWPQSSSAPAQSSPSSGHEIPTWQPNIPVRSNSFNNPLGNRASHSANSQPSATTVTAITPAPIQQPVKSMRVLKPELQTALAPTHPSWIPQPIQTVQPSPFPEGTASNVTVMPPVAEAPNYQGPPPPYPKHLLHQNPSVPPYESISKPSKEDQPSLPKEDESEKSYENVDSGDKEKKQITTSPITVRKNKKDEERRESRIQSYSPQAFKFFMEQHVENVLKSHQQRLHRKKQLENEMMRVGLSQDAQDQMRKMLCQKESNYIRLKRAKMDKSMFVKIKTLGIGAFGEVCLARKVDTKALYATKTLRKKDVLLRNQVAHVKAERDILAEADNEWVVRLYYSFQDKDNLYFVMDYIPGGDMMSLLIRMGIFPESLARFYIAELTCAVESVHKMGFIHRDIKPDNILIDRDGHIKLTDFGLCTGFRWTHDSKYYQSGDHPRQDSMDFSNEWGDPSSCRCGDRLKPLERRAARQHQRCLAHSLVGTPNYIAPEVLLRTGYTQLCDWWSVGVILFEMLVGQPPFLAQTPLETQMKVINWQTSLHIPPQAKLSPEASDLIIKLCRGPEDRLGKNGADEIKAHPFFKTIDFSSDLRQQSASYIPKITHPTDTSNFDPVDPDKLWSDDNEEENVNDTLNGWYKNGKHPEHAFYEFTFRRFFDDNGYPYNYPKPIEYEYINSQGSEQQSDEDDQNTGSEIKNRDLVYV
Method: (§1) THP-1 cells were seeded at a concentration of 3×10^6 cells in T175 flasks with 60 mL growth medium (RPMI1640+10% FBS). […] of a 10× compound solution prepared in growth medium (DMSO), CEREBLON_PROTAC) was added and the cells were treated for the indicated time points (6 or 24 h) at 37° C., 5% CO2. For harvesting the cells were collected into falcon tubes on ice, centrifuged and washed twice in cold PBS (Life technologies). After the last washing step the supernatant was removed and the pellets were snap-frozen in liquid N2 and stored at −80° C. and lysed in 2% SDS for 3 min at 95° C. in a thermomixer (Thermo Fisher Scientific), followed by digestion of DNA with Benzonase at 37° C. for 1.5 h. Lysate was cleared by centrifugation an protein concentration in supernatant was determined by BCA assay.
(§2) Leukemia 25, 89-100 (2011).
(§3) Samples were dried in vacuo and resuspended in 0.05% trifluoroacetic acid in water. Of the sample, 50% was injected into an Ultimate3000 nanoRLSC (Dionex, Sunnyvale, Calif.) coupled to a Q Exactive HF (Thermo Fisher Scientific). Peptides were trapped on a 5 mm×300 μm C18 column (Pepmap100, 5 μm, 300 Å, Thermo Fisher Scientific) in water with 0.05% TFA at 60° C. Separation was performed on custom 50 cm×[…] (ID) reversed-phase columns (Reprosil) at 55° C. Gradient elution was performed from 2% acetonitrile to 40% acetonitrile in 0.1% formic acid and 3.5% DMSO over 2 hours. Samples were online injected into Q-Exactive HF mass spectrometers operating with a data-dependent top 10 method. MS spectra were acquired by using 60.000 resolution and an ion target of 3×10^6. Higher energy collisional dissociation (HCD) scans were performed with 35% NCE at 30.000 resolution (at m/z 200), and the ion target settings was set to 2×10^5 so as to avoid coalescence (Werner, T. et al. Ion Coalescence of Neutron Encoded TMT 10-Plex Reporter Ions. Anal. Chem. 86, 3594-3601 (2014).
(§4) The first search was performed with 30 parts per million mass tolerance for peptide precursors and 30 mD (HCD) mass tolerance for fragment ions followed by a final search using recalibrated data with a 10 parts per million mass tolerance for peptide precursors and 20 mD (HCD) mass tolerance for fragment ions. Carbamidomethylation of cysteine residues and TMT modification of lysine residues were set as fixed modifications and methionine oxidation, and N-terminal acetylation of proteins and TMT modification of peptide N-termini were set as variable modifications. […]
(§5) Nat Biotech 29, 255-265 (2011). this measure is referred to as ion area Savitski, M. M. et al. Delayed Fragmentation and Optimized Isolation Width Settings for Improvement of Protein Identification and Accuracy of Isobaric Mass Tag Quantification on Orbitrap-Type Mass Spectrometers. […]

AURKB = biological target: T2, AURKB (Homo sapiens, UniProt Q96GD4); experiment: Expression proteomics in THP-1 cells: AURKB protein level; type: cell-based
T2 construct: endogenous in cells; host or cells: THP-1
T2 sequence (Q96GD4 whole entry): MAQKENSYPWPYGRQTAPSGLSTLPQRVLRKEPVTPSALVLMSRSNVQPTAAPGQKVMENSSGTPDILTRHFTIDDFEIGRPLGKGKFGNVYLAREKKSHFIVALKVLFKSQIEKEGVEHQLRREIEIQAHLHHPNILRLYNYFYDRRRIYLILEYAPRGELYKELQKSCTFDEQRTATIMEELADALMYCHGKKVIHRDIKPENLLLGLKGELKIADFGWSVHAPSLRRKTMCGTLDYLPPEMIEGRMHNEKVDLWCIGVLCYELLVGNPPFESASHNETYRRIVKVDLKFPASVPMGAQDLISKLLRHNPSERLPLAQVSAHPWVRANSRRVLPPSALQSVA
Method: as §1, §2, §3, §4, §5

SMILES: CNC(=O)c1ccccc1Nc1nc(Nc2ccc(N3CCN(CCOCCOCCOCCOCC(=O)Nc4cccc5c4CN(C4CCC(=O)NC4=O)C5=O)CC3)cc2)ncc1Cl.O=CO (centres unmarked) [CEREBLON_PROTAC, 14-(4-(4-((5-Chloro-4-((2-(methylcarbamoyl)phenyl)amino)pyrimidin-2-yl)amino)phenyl)piperazin-1-yl)-N-(2-(2,6-dioxopiperidin-3-yl)-1-oxoisoindolin-4-yl)-3,6,9,12-tetraoxatetradecan-1-amide formate]
- log2 rel. fc. to vehicle control (LATS1; 24 h 0.1 μM, n = 1): −1.02
- log2 rel. fc. to vehicle control (LATS1; 24 h 0.1 μM, n = 2): −1.01
- log2 rel. fc. to vehicle control (LATS1; 24 h 1 μM, n = 1): −1.46
- log2 rel. fc. to vehicle control (LATS1; 24 h 1 μM, n = 2): −1.55
- log2 rel. fc. to vehicle control (AURKB; 24 h 0.1 μM, n = 1): −1.75
- log2 rel. fc. to vehicle control (AURKB; 24 h 0.1 μM, n = 2): −1.44
- log2 rel. fc. to vehicle control (AURKB; 24 h 1 μM, n = 1): −0.83
- log2 rel. fc. to vehicle control (AURKB; 24 h 1 μM, n = 2): −1.33
